Test results as given in patent US12503436B2, “Compounds and compositions for treating conditions associated with STING activity” (NOVARTIS PHARMA AG, priority 2021, dated 2025).

The molecules below were run against STING (Homo sapiens, UniProt Q86WV6, G230A/H232R/R293Q/R71H) (assay: STING reporter assay in THP1-Dual KO-IFNAR2 cells (2′3′cGAMP stimulation, luciferase reporter)). Details: 15 μM 2′3′cGAMP stimulation, 24 h, read-out: Pharmaron, THP1_IFNAR2 STING 24 h Luci Normalized: GeoMean EC50.
Sequence of STING (Q86WV6 whole entry R71H/G230A/H232R/R293Q): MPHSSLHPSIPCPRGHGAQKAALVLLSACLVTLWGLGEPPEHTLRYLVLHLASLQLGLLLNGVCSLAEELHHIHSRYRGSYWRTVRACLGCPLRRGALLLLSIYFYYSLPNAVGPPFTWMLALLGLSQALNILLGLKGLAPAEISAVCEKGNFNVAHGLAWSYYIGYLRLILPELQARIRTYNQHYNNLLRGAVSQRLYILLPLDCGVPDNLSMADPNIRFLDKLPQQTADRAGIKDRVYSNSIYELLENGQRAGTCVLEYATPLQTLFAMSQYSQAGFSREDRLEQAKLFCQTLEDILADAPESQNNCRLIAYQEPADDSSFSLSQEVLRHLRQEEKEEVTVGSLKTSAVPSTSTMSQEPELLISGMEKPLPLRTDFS
Format: cell-based
Experimental: STING pathway activation by the compounds described herein was measured using THP1-Dual™ cells (KO-IFNAR2).
THP1-Dual™ KO-IFNAR2 Cells (obtained from InvivoGen) were maintained in RPMI, 10% FCS, 5 ml P/S, 2 mM L-glut, 10 mM Hepes, and 1 mM sodium pyruvate. Compounds were spotted in empty 384 well tissue culture plates (Greiner 781182) by Echo for a final concentration of 0.0017-100 μM. Cells were plated into the TC plates at 40 μL per well, 2×10E6 cells/mL. For activation with STING ligand, 2′3′cGAMP (MW 718.38, obtained from Invivogen), was prepared in Optimem media.
The following solutions were prepared for each 1×384 plate: • Solution A: 2 mL Optimem with one of the following stimuli: • 60 μL of 10 mM 2′3′cGAMP→150 μM stock • Solution B: 2 mL Optimem with 60 μL Lipofectamine 2000→Incubate 5 min at RT
2 mL of solution A and 2 ml Solution B was mixed and incubated for 20 min at room temperature (RT). 20 μL of transfection solution (A+B) was added on top of the plated cells, with a final 2′3′cGAMP concentration of 15 μM. The plates were then centrifuged immediately at 340 g for 1 minute, after which they were incubated at 37° C., 5% CO2, >98% humidity for 24 h. Luciferase reporter activity was then measured. EC50 values were calculated by using standard methods known in the art.
Luciferase reporter assay: 10 μL of supernatant from the assay was transferred to white 384-plate with flat bottom and squared wells. One pouch of QUANTI-Luc™ Plus was dissolved in 25 mL of water. 100 μL of QLC Stabilizer per 25 mL of QUANTI-Luc™ Plus solution was added. 50 μL of QUANTI-Luc™ Plus/QLC solution per well was then added. Luminescence was measured on a Platereader (e.g., Spectramax I3X (Molecular Devices GF3637001)).
Luciferase reporter activity was then measured. EC50 values were calculated by using standard methods known in the art.
For `CC(=O)Nc1c[nH]c2ccc(CCOc3ccc(OC(F)(F)F)c(F)c3)cc12` [Compound 438, N-(5-{2-[3-fluoro-4-(trifluoromethoxy)phenoxy]ethyl}-1H-indol-3-yl)acetamide], the EC50 was 40 to 200 nM. In the case of `CC(=O)Nc1c[nH]c2ccc(CCC[C@@H]3C[C@@H]4CN(CC(F)(F)F)C[C@@H]4C3)cc12` [Compound 539, N-(5-(3-((3aR,5r,6aS)-2-(2,2,2-trifluoroethyl)octahydrocyclopenta[c]pyrrol-5-yl)propyl)-1H-indol-3-yl)acetamide], the EC50 is reported as 1000 to 5000 nM. Molecule `O=C(Nc1c[nH]c2ccc(CC(O)Cc3ccc(C(F)(F)F)cc3)cc12)C1CC1` (single isomer, unassigned) [Compound 200, N-(5-(2-hydroxy-3-(4-(trifluoromethyl)phenyl)propyl)-1H-indol-3-yl)cyclopropanecarboxamide] has an EC50 of 200 to 1000 nM. `CC1(C(=O)Nc2c[nH]c3ccc(O[C@H]4C[C@H](c5ccc(C(F)(F)F)cc5)C4)cc23)CCOCC1` [Compound 488, 4-methyl-N-{5-[(1R,3R)-3-[4-(trifluoromethyl)phenyl]cyclobutoxy]-1H-indol-3-yl}oxane-4-carboxamide] was tested, and the EC50 was 40 to 200 nM. Work on `O=C(Nc1c[nH]c2ccc(CCOc3ccc(C(F)(F)F)cc3)cc12)C1CC1` [Compound 592, N-(5-(2-(4-(trifluoromethyl)phenoxy)ethyl)-1H-indol-3-yl)cyclopropanecarboxamide] yielded an EC50 of 200 to 1000 nM. `CC(=O)Nc1c[nH]c2ccc(OCCC3CCN(c4ccc(C(F)(F)F)cc4)CC3)cc12` [Compound 104, N-(5-(2-(1-(4-(trifluoromethyl)phenyl)piperidin-4-yl)ethoxy)-1H-indol-3-yl)acetamide] showed an EC50 of 200 to 1000 nM. In the case of `COCCOCC(=O)Nc1c[nH]c2ccc(CCOc3ccc(C(F)(F)F)cc3)cc12` [Compound 406, 2-(2-methoxyethoxy)-N-(5-(2-(4-(trifluoromethyl)phenoxy)ethyl)-1H-indol-3-yl)acetamide], the EC50 is reported as 200 to 1000 nM. In the case of `CC(=O)Nc1c[nH]c2ccc(CCC3(c4ccc(C(F)(F)F)cc4)COC3)cc12` [Compound 508, N-(5-(2-(3-(4-(trifluoromethyl)phenyl)oxetan-3-yl)ethyl)-1H-indol-3-yl)acetamide], the EC50 is reported as 5000 to 100000 nM. With `CC(=O)Nc1c[nH]c2ccc(CCOc3ccc(C)cc3)cc12` [Compound 228, N-(5-(2-(p-tolyloxy)ethyl)-1H-indol-3-yl)acetamide] the EC50 was 200 to 1000 nM. For `O=C(Nc1c[nH]c2ccc(O[C@H]3C[C@H](c4ccc(C(F)(F)F)cc4)C3)cc12)C1CC(O)C1` (stereo partly drawn) [Compound 573, 3-hydroxy-N-(5-(trans-3-(4-(trifluoromethyl)phenyl)cyclobutoxy)-1H-indol-3-yl)cyclobutane-1-carboxamide], the EC50 was 40 to 200 nM. `O=C(Nc1c[nH]c2ccc(O[C@H]3C[C@H](c4ccc(C(F)(F)F)cc4)C3)cc12)C1COC1` [Compound 518, N-(5-(trans-3-(4-(trifluoromethyl)phenyl)cyclobutoxy)-1H-indol-3-yl)oxetane-3-carboxamide] was tested, and the EC50 was 200 to 1000 nM. In the case of `CC(=O)Nc1c[nH]c2ccc(O[C@H]3C[C@H](c4ccc(C(F)(F)F)cc4)C3)cc12` [Compound 103, N-(5-(trans-3-(4-(trifluoromethyl)phenyl)cyclobutoxy)-1H-indol-3-yl)acetamide], the EC50 is reported as 40 to 200 nM. Work on `CC(=O)Nc1c[nH]c2ccc(O[C@H]3C[C@H](c4ccc(C(F)(F)F)cc4C)C3)cc12` [Compound 435, N-(5-(trans-3-(2-methyl-4-(trifluoromethyl)phenyl)cyclobutoxy)-1H-indol-3-yl)acetamide] yielded an EC50 of 40 to 200 nM. Work on `CC(=O)Nc1c[nH]c2ccc(OCCC3CN(CC(F)(F)F)CC34CC4)cc12` (stereo not drawn) [Compound 478, N-(5-(2-(5-(2,2,2-trifluoroethyl)-5-azaspiro[2.4]heptan-7-yl)ethoxy)-1H-indol-3-yl)acetamide] yielded an EC50 of 1000 to 5000 nM. `CC(=O)Nc1c[nH]c2ccc(O[C@@H]3C[C@H](c4ccc(C(F)(F)F)cc4)C3(C)C)cc12` (relative stereo) [Compound 432, N-(5-(cis-2,2-dimethyl-3-(4-(trifluoromethyl)phenyl)cyclobutoxy)-1H-indol-3-yl)acetamide] gave an EC50 of 1000 to 5000 nM. For `COC1CC(C(=O)Nc2c[nH]c3ccc(O[C@H]4C[C@H](c5ccc(C(F)(F)F)cc5)C4)cc23)C1` (stereo partly drawn) [Compound 572, 3-methoxy-N-(5-(trans-3-(4-(trifluoromethyl)phenyl)cyclobutoxy)-1H-indol-3-yl)cyclobutane-1-carboxamide], the EC50 was 40 to 200 nM. `C[C@]1(C(=O)Nc2c[nH]c3ccc(OCCc4ccc(C(F)(F)F)cc4)cc23)C[C@@H](CO)C1` [Compound 531, cis-3-(hydroxymethyl)-1-methyl-N-(5-(4-(trifluoromethyl)phenethoxy)-1H-indol-3-yl)cyclobutane-1-carboxamide] was tested, and the EC50 was 40 to 200 nM. With `CC(=O)Nc1c[nH]c2ccc(CCOc3ccc(C(F)(F)F)cn3)cc12` [Compound 215, N-(5-(2-((5-(trifluoromethyl)pyridin-2-yl)oxy)ethyl)-1H-indol-3-yl)acetamide] the EC50 was 200 to 1000 nM. Molecule `COCC(=O)Nc1c[nH]c2ccc(O[C@H]3C[C@H](c4ccc(C(F)(F)F)cc4)C3)cc12` [Compound 258, 2-methoxy-N-(5-(trans-3-(4-(trifluoromethyl)phenyl)cyclobutoxy)-1H-indol-3-yl)acetamide] has an EC50 of 40 to 200 nM. With `CC1(C(=O)Nc2c[nH]c3ccc(OC[C@@H]4C[C@H]5CC[C@@H](C4)N5CC(F)(F)F)cc23)COC1` [Compound 485, 3-methyl-N-(5-(((1R,3s,5S)-8-(2,2,2-trifluoroethyl)-8-azabicyclo[3.2.1]octan-3-yl)methoxy)-1H-indol-3-yl)oxetane-3-carboxamide] the EC50 was 1000 to 5000 nM. `O=C(Nc1c[nH]c2ccc(O[C@H]3C[C@@H](c4ccc(C(F)(F)F)cc4)C3)cc12)C1(CO)CCC1` [Compound 420, 1-(hydroxymethyl)-N-(5-(cis-3-(4-(trifluoromethyl)phenyl)cyclobutoxy)-1H-indol-3-yl)cyclobutane-1-carboxamide] showed an EC50 of 200 to 1000 nM. For `CC1(C)CC1C(=O)Nc1c[nH]c2ccc(O[C@H]3C[C@H](c4ccc(C(F)(F)F)cc4)C3)cc12` (stereo partly drawn) [Compound 563, 2,2-dimethyl-N-(5-(trans-3-(4-(trifluoromethyl)phenyl)cyclobutoxy)-1H-indol-3-yl)cyclopropane-1-carboxamide], the EC50 was 40 to 200 nM. `COCCOCC(=O)Nc1c[nH]c2ccc(O[C@H]3C[C@H](c4ccc(C(F)(F)F)cc4)C3)cc12` [Compound 486, 2-(2-methoxyethoxy)-N-{5-[(1R,3R)-3-[4-(trifluoromethyl)phenyl]cyclobutoxy]-1H-indol-3-yl}acetamide] was tested, and the EC50 was 40 to 200 nM. `O=C(Nc1c[nH]c2ccc(O[C@H]3C[C@H](c4ccc(C(F)(F)F)cc4)C3)cc12)C1CC1(F)F` (stereo partly drawn) [Compound 574, 2,2-difluoro-N-(5-(trans-3-(4-(trifluoromethyl)phenyl)cyclobutoxy)-1H-indol-3-yl)cyclopropane-1-carboxamide] gave an EC50 of 40 to 200 nM. With `O=C(Nc1c[nH]c2ccc(OCC[C@@H]3C[C@@H]4CN(CC(F)(F)F)C[C@@H]4C3)cc12)C1(C(F)(F)F)CC1` [Compound 366, N-(5-(2-((3aR,5r,6aS)-2-(2,2,2-trifluoroethyl)octahydrocyclopenta[c]pyrrol-5-yl)ethoxy)-1H-indol-3-yl)-1-(trifluoromethyl)cyclopropane-1-carboxamide] the EC50 was 200 to 1000 nM. In the case of `C[C@H]1C[C@H](C(=O)Nc2c[nH]c3ccc(OCC[C@@H]4C[C@@H]5CN(CC(F)(F)F)C[C@@H]5C4)cc23)C1` [Compound 341, (1r,3R)-3-methyl-N-(5-(2-((3aR,5r,6aS)-2-(2,2,2-trifluoroethyl)octahydrocyclopenta[c]pyrrol-5-yl)ethoxy)-1H-indol-3-yl)cyclobutane-1-carboxamide], the EC50 is reported as 200 to 1000 nM. With `COCC1(C(=O)Nc2c[nH]c3ccc(O[C@H]4C[C@@H](c5ccc(C(F)(F)F)cc5)C4)cc23)CC1` [Compound 333, 1-(methoxymethyl)-N-(5-(cis-3-(4-(trifluoromethyl)phenyl)cyclobutoxy)-1H-indol-3-yl)cyclopropane-1-carboxamide] the EC50 was 1000 to 5000 nM. For `CC1(C(=O)Nc2c[nH]c3ccc(OCCc4ccc(C(F)(F)F)cc4)cc23)COC1` [Compound 238, 3-methyl-N-(5-(4-(trifluoromethyl)phenethoxy)-1H-indol-3-yl)oxetane-3-carboxamide], the EC50 was 40 to 200 nM. `CCC(=O)Nc1c[nH]c2ccc(Cc3cc(C)ccc3O)cc12` [Compound 290, N-(5-(2-hydroxy-5-methylbenzyl)-1H-indol-3-yl)propionamide] showed an EC50 of 5000 to 100000 nM. Work on `O=C(Nc1c[nH]c2ccc(CCOc3ccc(C(F)(F)F)cc3)cc12)C1CC(F)C1` (stereo not drawn) [Compound 593, 3-fluoro-N-(5-(2-(4-(trifluoromethyl)phenoxy)ethyl)-1H-indol-3-yl)cyclobutane-1-carboxamide] yielded an EC50 of 40 to 200 nM.
